In US20070154445A1, “Compositions, methods and kits for preventing the decomposition of urine” (priority 2006, published 2007):
Read-outs that look alike come from different tables or passages of the source.

[1] = 4 grams in total added to 600 milliliters of urine
[2] = 5 grams in total added to 600 milliliters of urine

Procedure: Accordingly, various compositions were tested to determine their effect on the pH when added to 600 milliliters of urine.

| SMILES | Resulting pH [1] | Resulting pH [2] |
| --- | --- | --- |
| O=C(O)CC(O)(CC(=O)O)C(=O)O [Pure citric acid in granular form, citric acid] | 3.8 | 3.7 |
| O=C(O)CCC(=O)O [Pure succinic acid in granular form, succinic acid] |  | 4.2 |
| O=C(O)C(O)C(O)C(=O)O (centres unmarked) [Pure tartaric acid in granular form, tartaric acid] | 3.4 | 3.3 |
